Laboratory results as given in patent US8354400B2, “Benzoxazole compounds and methods of use” (Eisai R&D Co., Ltd., priority 2008, dated 2013).
Entries after “also recorded” stand apart in the source; their conditions may differ.

How the values were obtained:
Format in all cases: in vivo
MRL/lpr mice = experiment: MRL/lpr spontaneous lupus model, Experiment 2; conditions: 12 weeks, high dose (60 mg/kg p.o.)
Method: In this SLE experiment, dosing, groups were as described in Table 4 below. Two dose levels of Compound 23 were compared to HCQ and cyclophosphamide (Cytoxan®). HCQ and cyclophosphamide are currently used in the treatment of cutaneous and systemic lupus, respectively. […] Sera were assayed at a 1:600 dilution in PBS. (Mouse Anti-dsDNA Total Ig Qualitative ELISA kits, Alpha Diagnostic International). Dosing was conducted by either oral (p.o.) or intraperitoneal (i.p.) administration.

[1] = tested on: MOGp35-55-induced EAE in C57BL/6J mice; experiment: Experimental autoimmune encephalitis (EAE) multiple sclerosis model
Method: Experimental autoimmune encephalitis (EAE) is an induced autoimmunity in mice that mimics human multiple sclerosis, including autoantibody and cellular responses targeted against central nervous system antigens. To induce EAE, groups of 8 male C57BL/6J mice (Jackson Laboratories) were immunized subcutaneously on day 0 with the synthetic peptide MOGp35-55 (Becher et al. J. Clin. Invest. 112:1186-1191 (2003)), with amino acid sequence […] (SEQ ID NO:4) at a dose of 200 μg/mouse in complete Freund's adjuvant (CFA). At the same time the animals received pertussis toxin, i.p. at 30 ng/mouse. On day 2 the pertussis injection was repeated. On day 7 the mice were boosted with MOGp35-55, 200 μg/mouse in incomplete Freund's. Beginning on day 9 the mice were dosed daily by oral gavage with Compound 23 in water at 20 mg/kg or 60 mg/kg. Symptoms were scored by observing degree and location of paralysis of the tail and limbs, the average score for each group of 8 mice is shown.

[2] = tested on: MRL/MpJ-faslpr/J mice (MRL/lpr); experiment: MRL/MpJ-faslpr/J spontaneous lupus model, Experiment 1
Method: In this experiment, MRL/MpJ-faslpr/J mice (“MRL/lpr”) obtained from Jackson Laboratories were dosed orally with Compound 23 at 20 or 60 mg/kg in water. MRL/lpr mice have a defect in lymphocyte death and spontaneously develop autoantibodies including the anti-nuclear antibodies found in human systemic lupus erythematosus (SLE). Dosing was performed daily five days a week beginning at 5 weeks of age. Blood and urine samples were taken prior to dosing on day one and every three to four weeks thereafter. An ELISA assay was used to measure serum anti-dsDNA before and after 7 weeks of dosing. The assay was conducted using a Mouse Anti-dsDNA Total Ig Qualitative ELISA kit (Alpha Diagnostic International, San Antonio. TX).
Anti-nuclear antibodies (“ANA”) in this experiment were also examined by exposing fixed […] cells, obtained as fixed samples on slides from Antibodies Inc., to diluted serum from the mice dosed with Compound 23 at 20 or 60 mg/kg, as described above, and staining for mouse immunoglobulin using the kit reagents supplied by Antibodies Inc. according to the kit instructions. Intensity of fluorescent staining was then read by microscope, and scores were assigned values between − and +++. Sample identifications were blinded for data collection.

[3] = tested on: collagen induced arthritis in male DBA/1J mice; experiment: Type II collagen induced arthritis model; conditions: 5 days per week from day 9
Method: The type II collagen induced arthritis model was used for the purpose of in vivo evaluation of Compound 2 for the treatment of arthritis. In this model, arthritis was induced in male DBA/1J (Jackson Labs) mice using complete Freund's adjuvant. A first priming/immunization dose of 300 μg of bovine type II collagen emulsified in an equal volume of complete Freund's adjuvant is injected subcutaneously (s.c.) at least 5 mm from the base of the tail.
Starting on day 9 after immunization and each day for 5 days per week thereafter, each mouse was dosed orally with 6 mg/kg, 20 mg/kg, or 60 mg/kg of Compound 2 or placebo 5 days per week.
A second immunization dose was administered 21 days after the first immunization by s.c. injection above the first immunization site of 200 μg of bovine type II collagen emulsified in an equal volume of incomplete Freund's adjuvant. To further promote arthritis progression, animals receive an intraperitoneal injection of lipopolysaccharide (LPS) (1 μg/mouse in PBS) three days after the second immunization.
At 21, 25, 28, and 31 days after the first immunization dose, the animals were examined for evidence of paw swelling and assigned an arthritis score at each time point.

| SMILES | difference in mean dsDNA level between vehicle and compound (MRL/lpr mice) | MOG-induced EAE symptom score compared to control mice ([1]; 20 mg/kg oral gavage daily from day 9) | MOG-induced EAE symptom score ([1]; 60 mg/kg oral gavage daily from day 9) | serum anti-dsDNA, mean OD450 versus vehicle ([2]; MRL/lpr mice, 10 weeks of dosing) | serum anti-dsDNA versus vehicle ([2]; MRL/lpr mice, 12 weeks and beyond) | dosage-related toxicity (general appearance, body weight) ([2]; MRL/lpr mice, 20 or 60 mg/kg oral) | serum anti-dsDNA, mean OD450 versus vehicle ([2]; MRL/lpr mice, 20 or 60 mg/kg oral, 7 weeks of dosing) | anti-nuclear antibody (ANA) development ([2]; MRL/lpr mice, 20 or 60 mg/kg oral, 4, 10, 12 weeks of dosing) | anti-dsDNA in the MRL/lpr model of SLE (summary) ([2]; daily oral dosing with 60 and 20 mg/kg) | paw swelling (arthritis score) ([3]; 60 mg/kg oral) | paw swelling (arthritis score) ([3]; 6 and 20 mg/kg oral) |
| --- | --- | --- | --- | --- | --- | --- | --- | --- | --- | --- | --- |
| c1cc(-c2nc3ccc(OCCCN4CCCC4)cc3o2)ccc1OCCCN1CCCC1 [Compound 23] | statistically significant difference | suppressed significantly | suppressed further | statistical difference was still observed | more similar to vehicle-treated animals | No evidence of dosage-related toxicity | statistically significant suppression | dose-dependent suppression of ANA development; also recorded: dose-dependent inhibition | suppression of anti-dsDNA |  |  |
| CN(C)CCCOc1ccc(-c2nc3ccc(OCCCN(C)C)cc3o2)cc1 [Compound 2] |  |  |  |  |  |  |  |  |  | not clear | Suppression of paw swelling |
